In brackets after ≈: the same amount, converted by molar mass. Read-outs that look alike come from different tables or passages of the source.
Columns and labels:
E. coli ATCC 25922 = assay: Minimum inhibitory concentration (MIC), E. coli; assay type: cell-based, Escherichia coli
Protocol: (§1) Bacterial Strains. The Streptococcus pyogenes strains, Klebsiella pneumoniae, Escherichia coli, Staphylococcus aureus, Enterococcus faecalis used in the antibacterial activity studies ATCC 14289, 49399, 13883, 25922, 13709, 29212, respectively, are obtained from the American Type Culture Collection, Rockville, Md. The strain E. coli imp— is a mutant strain of wild type E. coli with increased outer membrane permeability and was grown in LB broth at 37 °C. S. pyogenes strain is grown in Todd-Hewitt broth. S. aureus is grown in trypticase soy broth, E. faecalis in Todd-Hewitt broth, wild type E. coli and K. pneumoniae, in nutrient broth.
(§2) Determination of Minimum Inhibitory Concentrations (MICs). The assays were carried out in […] volume in duplicate in 96-well clear flat-bottom plates. The bacterial suspension from an overnight culture growth in appropriate medium was added to a solution of test compound in 4% DMSO in water. Final bacterial inoculum was approximately 10^5-10^6 CFU/well. The percent growth of the bacteria in test wells relative to that observed for a well containing no compound was determined by measuring absorbance at 595 nm (A595) after 24 h. […] Both ampicillin and tetracycline is used as antibiotic-positive controls in each screening assay for S. pyogenes, E. coli imp-, E. coli, S. aureus, E. faecalis, K pneumoniae and P. vulgaris. Ciprofloxacin is used as an antibiotic positive control in each screening assay for P. aeruginosa.

S. aureus ATCC 13709 = assay: Minimum inhibitory concentration (MIC), S. aureus; assay type: cell-based, Staphylococcus aureus
Protocol: as §1, §2

[1] = test system: E. coli S30 bacterial extract (protein synthesis); assay type: biochemical; conditions: at 200:M
Protocol: Coupled Bacterial Transcription/Translation Assay. The DNA template, pBestLuc™ (Promega), is a plasmid containing a reporter gene for firefly luciferase fused to a strong tac promoter and ribosome binding site. Messenger RNA from 1 μg pBestLuc was transcribed and translated in E. coli S30 bacterial extract in the presence or absence of test compound. Compounds were tested in a black 96 well microtiter plate with an assay volume of 35 μL. Each test well contained: 5 μL test compound, 13 μL S30 premix (Promega), 4 μL 10× complete amino acid mix (1 mM each), 5 μL E. coli S30 extract and 8 μL of […] pBestLuc™. The transcription/translation reaction was incubated for 35 minutes at 37° C. followed by detection of functional luciferase with the addition of 30 μL LucLite™ (Packard). Light output was quantitated on a Packard TopCount.

[2] = Escherichia coli, ATCC25922, 24 h, read-out: MIC (E. coli)
[3] = Staphylococcus aureus, ATCC13709, 24 h, read-out: MIC (S. aureus)

**Q.** How did the MIC (E. coli ATCC 25922; [2]) turn out when `CN(C)CCCOc1ccc(C(NC(=O)c2ccc(-c3cccc(NC(=O)c4ccc(-c5ccccc5)cc4Cl)c3)o2)C(=O)N2CCNCC2)cc1` (centres unmarked) [Compound 60] was run?
**A.** The MIC was 6 to 13 mM (≈ 4320 to 9360 µg/mL).

**Q.** What about the MIC (S. aureus ATCC 13709; [3]) of the same compound?
**A.** The MIC was 25 to 50 mM (≈ 18000 to 36000 µg/mL).

**Q.** How did the MIC (E. coli ATCC 25922; [2]) turn out when `CN(C)CCCOc1ccc(C(NC(=O)c2ccc(-c3cccc(NC(=O)c4ccc(-c5cccc(Cl)c5)cc4)c3)o2)C(=O)N2CCNCC2)cc1` (centres unmarked) [Compound 48] was run?
**A.** The MIC was 13 to 25 mM (≈ 9360 to 18000 µg/mL).

**Q.** What about the MIC (S. aureus ATCC 13709; [3]) of the same compound?
**A.** Its MIC is 13 to 25 mM (≈ 9360 to 18000 µg/mL).

**Q.** Which results are given for `Cc1cc(C)c(-c2ccc(C(=O)Nc3cccc(-c4ccc(C(=O)NC(C(=O)N5CCNCC5)c5ccc(OCCCN(C)C)cc5)o4)c3)cc2)c(C)c1` (centres unmarked) [Compound 45]?
**A.** MIC (E. coli ATCC 25922; [2]): 50 to 100 mM (≈ 36400 to 72800 µg/mL); MIC (S. aureus ATCC 13709; [3]): 13 to 25 mM (≈ 9460 to 18200 µg/mL)

**Q.** What does the source list for `CN(C)CCCOc1ccc(C(C(=O)N2CCNCC2)N(C)Cc2ccc(-c3cccc(NC(=O)c4ccc(-c5ccccc5)cc4)c3)o2)cc1` (centres unmarked) [Compound 64]?
**A.** MIC (E. coli ATCC 25922; [2]): 6 to 13 mM (≈ 4120 to 8920 µg/mL); MIC (S. aureus ATCC 13709; [3]): 3 to 6 mM (≈ 2060 to 4120 µg/mL)

**Q.** Which MIC (E. coli ATCC 25922; [2]) does the source give for `CN(C)CCCOc1ccc(C(NC(=O)c2ccc(-c3cccc(NC(=O)c4ccc(-c5ccc(F)cc5F)cc4)c3)o2)C(=O)N2CCNCC2)cc1` (centres unmarked) [Compound 55] here?
**A.** Its MIC is 25 to 50 mM (≈ 18000 to 36100 µg/mL).

**Q.** What about the MIC (S. aureus ATCC 13709; [3]) of the same compound?
**A.** The MIC was 6 to 13 mM (≈ 4330 to 9380 µg/mL).

**Q.** Which “activity in bacterial protein synthesis assay at 200:M” value [1] does the source give for `CN(C)CCCOc1ccc(C(NC(=O)c2ccc3[nH]c(=O)c(=O)[nH]c3c2)C(=O)N2CCNCC2)cc1` (centres unmarked) [Compound 22] here?
**A.** The value was “inactive”.

**Q.** `CN(C)CCCOc1ccc(C(NC(=O)c2ccc(-c3cccc(NC(=O)c4ccc(-c5ccccc5Cl)cc4)c3)o2)C(=O)N2CCNCC2)cc1` (centres unmarked) [Compound 47] was tested. Which MIC (E. coli ATCC 25922; [2]) did it give?
**A.** The MIC was 6 to 13 mM (≈ 4320 to 9360 µg/mL).

**Q.** What about the MIC (S. aureus ATCC 13709; [3]) of the same compound?
**A.** Its MIC is 25 to 50 mM (≈ 18000 to 36000 µg/mL).

**Q.** Which results are given for `CN(C)CCCOc1ccc(C(NC(=O)c2ccc(-c3cccc(NC(=O)c4ccc(-c5ccccc5)cc4)c3)s2)C(=O)N2CCNCC2)cc1` (centres unmarked) [Compound 69]?
**A.** MIC (E. coli ATCC 25922; [2]): 25 to 50 mM (≈ 17500 to 35100 µg/mL); MIC (S. aureus ATCC 13709; [3]): 25 to 50 mM (≈ 17500 to 35100 µg/mL)

**Q.** What does the source list for `Cc1ccc(C)c(-c2ccc(C(=O)Nc3cccc(-c4ccc(C(=O)NC(C(=O)N5CCNCC5)c5ccc(OCCCN(C)C)cc5)o4)c3)cc2)c1` (centres unmarked) [Compound 43]?
**A.** MIC (E. coli ATCC 25922; [2]): 25 to 50 mM (≈ 17800 to 35700 µg/mL); MIC (S. aureus ATCC 13709; [3]): 13 to 25 mM (≈ 9280 to 17800 µg/mL)

**Q.** Which results are given for `Cc1cc(C(=O)Nc2cccc(-c3ccc(C(=O)NC(C(=O)N4CCNCC4)c4ccc(OCCCN(C)C)cc4)o3)c2)ccc1-c1ccccc1` (centres unmarked) [Compound 62]?
**A.** MIC (E. coli ATCC 25922; [2]): 3 to 6 mM (≈ 2100 to 4200 µg/mL); MIC (S. aureus ATCC 13709; [3]): 12 to 25 mM (≈ 8400 to 17500 µg/mL)

**Q.** What does the source list for `CN(C)CCCOc1ccc(C(NC(=O)c2ccc(-c3cccc(NC(=O)c4ccc(-c5ccccc5)cc4)c3)o2)C(=O)N2CCN(C)CC2)cc1` (centres unmarked) [Compound 70]?
**A.** MIC (E. coli ATCC 25922; [2]): 25 to 50 mM (≈ 17500 to 35000 µg/mL); MIC (S. aureus ATCC 13709; [3]): 25 to 50 mM (≈ 17500 to 35000 µg/mL)

**Q.** What does the source list for `Cc1cccc(-c2ccc(C(=O)Nc3cccc(-c4ccc(C(=O)NC(C(=O)N5CCNCC5)c5ccc(OCCCN(C)C)cc5)o4)c3)cc2)c1C` (centres unmarked) [Compound 42]?
**A.** MIC (E. coli ATCC 25922; Escherichia coli, ATCC25922, 24 h; read-out: MIC (E. coli)): 13 to 25 mM (≈ 9280 to 17800 µg/mL); MIC (S. aureus ATCC 13709; Staphylococcus aureus, ATCC13709, 24 h; read-out: MIC (S. aureus)): 3 to 6 mM (≈ 2140 to 4280 µg/mL)

**Q.** What does the source list for `CN(C)CCCOc1ccc(C(NC(=O)c2ccc(-c3cccc(NC(=O)c4ccc(-c5cccc(F)c5)cc4)c3)o2)C(=O)N2CCNCC2)cc1` (centres unmarked)?
**A.** MIC (E. coli ATCC 25922; [2]): 6 to 13 mM (≈ 4220 to 9150 µg/mL); MIC (S. aureus ATCC 13709; [3]): 3 to 6 mM (≈ 2110 to 4220 µg/mL)

**Q.** With `CN(C)CCCOc1ccc(C(NC(=O)c2ccc(-c3cccc(N(C)Cc4ccc(-c5ccccc5)cc4)c3)o2)C(=O)N2CCNCC2)cc1` (centres unmarked) [drawing 89] as the compound, how does the MIC (E. coli ATCC 25922; Escherichia coli, ATCC25922, read-out: MIC (E. coli) +serum) read?
**A.** The MIC was greater than 100 mM.

**Q.** What about the MIC (E. coli ATCC 25922; Escherichia coli, ATCC25922, read-out: MIC (E. coli) alone) of the same compound?
**A.** Its MIC is 6 to 13 mM (≈ 4120 to 8920 µg/mL).

**Q.** What about the MIC (S. aureus ATCC 13709; Staphylococcus aureus, ATCC13709, read-out: MIC (S. aureus) +serum, with serum) of the same compound?
**A.** The MIC was 50 to 100 mM (≈ 34300 to 68600 µg/mL).

**Q.** What about the MIC (S. aureus ATCC 13709; Staphylococcus aureus, ATCC13709, read-out: MIC (S. aureus) alone, alone (no serum)) of the same compound?
**A.** Its MIC is 3 to 6 mM (≈ 2060 to 4120 µg/mL).

**Q.** How did the MIC (E. coli ATCC 25922; [2]) turn out when `CN(C)CCCOc1ccc(C(NC(=O)c2ccc(-c3cccc(NCc4ccc(-c5ccccc5)cc4)c3)o2)C(=O)N2CCNCC2)cc1` (centres unmarked) [Compound 65] was run?
**A.** The MIC was 13 to 25 mM (≈ 8730 to 16800 µg/mL).

**Q.** And the MIC (S. aureus ATCC 13709; [3])?
**A.** Its MIC is 3 to 6 mM (≈ 2020 to 4030 µg/mL).

**Q.** With `CN(C)CCCOc1ccc(C(NC(=O)c2ccc(-c3cccc(NC(=O)c4ccc(-c5cc(Cl)cc(Cl)c5)cc4)c3)o2)C(=O)N2CCNCC2)cc1` (centres unmarked) [Compound 49] as the compound, how does the MIC (E. coli ATCC 25922; [2]) read?
**A.** Its MIC is greater than 100 mM.

**Q.** What about the MIC (S. aureus ATCC 13709; [3]) of the same compound?
**A.** Its MIC is greater than 100 mM.

**Q.** Which results are given for `CN(C)CCCOc1ccc(C(NC(=O)c2ccc(-c3cccc(N(C)Cc4ccc(-c5ccccc5)cc4)c3)o2)C(=O)N2CCNCC2)cc1` (centres unmarked) [Compound 66]?
**A.** MIC (E. coli ATCC 25922; [2]): 13 to 25 mM (≈ 8920 to 17100 µg/mL); MIC (S. aureus ATCC 13709; [3]): 3 to 6 mM (≈ 2060 to 4120 µg/mL)

Source: patent US7432264B2, “Antimicrobial biaryl compounds” (Isis Pharmaceuticals, Inc., priority 2000, dated 2008)
